Read-outs that look alike come from different tables or passages of the source.
Experiments:
[1] = MTT-based cell viability assay; parameters: species or system human; details: human; HL-60 cells, 24 h incubation, MTT; read-out: IC50 acute cytotoxicity
Experimental: (§1) The SirReal-based Sirt2 inhibitors (FM345, FM352, FM358, FM368, RW-93, RW-95 and RW-99) were tested for potential acute cytotoxicity to human cells in an MTT-based cell viability assay. […] HL-60 cells were treated with the corresponding Sirt2 inhibitors at various concentrations and then incubated for 24 h. […] Representative cell viability results following treatment with RW-93 are shown in Figure S1 of the Supplementary Materials.
(§2) Cell viability assay. The cytotoxicity of the Sirt2 inhibitors was determined using a colorimetric MTT assay following Mosmann’s protocol. HL-60 cells (purchased from DSMZ (German Collection of Microorganisms and Cell Cultures, Deutsche Sammlung von Mikroorganismen und Zellkulturen GmbH, Braunschweig, Germany) were cultivated in RPMI medium with 10% fetal bovine serum at 37 °C with 5% CO2 atmosphere. The cells were then seeded in a 96-well plate with a concentration of 9 x 10^4 cells/well and a well volume of 99 µL. The cells were further incubated at 37 °C with 5% CO2 atmosphere for 24 h. The cells were then treated with 1 µL solution of Sirt2 inhibitors in various concentrations, which were prepared from 10 mM or 20 mM DMSO stock solutions. Negative controls were treated with 1 µL DMSO and positive controls with 1 µL of 1% Triton-X solution. Three technical replicates were performed. After incubation for 24 h, 10 µL MTT (5.0 mg/mL in PBS) were added to each well and the cells were incubated at 37 °C with 5% CO2 atmosphere for 2 h. Then 190 µL DMSO were added to each well and the plate shaken at room temperature at 600 rpm for 1 h with light exclusion. The absorbance of the MTT metabolite formazan was measured at 570 nm using the MRX Microplate Reader (Dynex Technologies, Chantilly, VA, USA). The means of the corresponding triplicates were calculated and set in relation to the 1% DMSO negative controls. The data was processed using Prism 8.0.2 (GraphPad Software, Boston, MA, USA) software and a logarithmic sigmoidal curve fitting for the calculation of the respective IC50 values was performed.

[2] = tested on: T1, Sirt1; assay: Fluorescence-based Sirt1 subtype selectivity assay (Reaction Biology); format: biochemical; details: 50 µM inhibitor, duplicate, relative to no-inhibitor control
T1 construct: includes amino acids 1–747 (C-terminal); His-tag (N); purchased Reaction Biology Corporation (Malvern, PA, USA), in-house enzyme of the contract laboratory; host or cells: E. coli
Experimental: (§3) The determination of the inhibitory potency and corresponding subtype selectivity of the synthesized hybrid candidates was performed by Reaction Biology Cooperation (Malvern, PA, USA) using a fluorescence-based assay (Table 1).
(§4) Sirtuin assays. The biological activity of the test substances against the respective sirtuin enzymes was evaluated by means of a fluorescence-based assay performed by Reaction Biology Corporation (Malvern, PA, USA). The sirtuin enzymes used in the assays were all obtained from in-house sources at Reaction Biology Corporation (Malvern, PA, USA). Sirt1, with accession number NM_012238, includes amino acids 1–747 (C-terminal) and is tagged with an N-terminal His-tag. Sirt1 was expressed in E. coli and purified to greater than 85% as confirmed by SDS-PAGE and is supplied as a solution in 50 mM Tris/HCl (pH 7.5), 100 mM NaCl, and 10% glycerol (v/v). Sirt2 (accession number NM_012237), comprising amino acids 50–389 (C-terminal), features an N-terminal His-tag and was expressed in E. coli and finally purified to over 90% by SDS-PAGE. Sirt2 is provided in a buffer containing 50 mM Tris/HCl (pH 7.5), 500 mM NaCl, 1 mM TCEP, and 10% glycerol (v/v). Sirt3, with accession number NM_012239.3, spans amino acids 101–399 and is tagged with an N-terminal GST and expressed in E. coli and purified to greater than 85% purity by SDS-PAGE. Sirt3 is supplied in 50 mM Tris/HCl (pH 7.5), 500 mM NaCl, and 10% glycerol (v/v). Sirt5 (accession number NM_012241), consisting of amino acids 37–310 (C-terminal) and tagged with an N-terminal His-tag, was expressed in E. coli, purified to greater than 95% purity by SDS-PAGE and delivered as a solution in 50 mM Tris/HCl (pH 7.5), 500 mM NaCl, 1 mM TCEP, and 10% glycerol (v/v). All proteins were provided in purified forms for use in the assays. The respective internal assay protocol is outlined in the following: After the test substances (dissolved in DMSO) were incubated with the desired sirtuin enzyme in assay buffer (Tris-HCl, pH = 8) for 10 min at 30 °C, a substrate mixture consisting of a 7-amino-4-methylcoumarin-linked fluorogenic peptide substrate (p53 residues 379–382) and the cofactor NAD^+ was added. After 2 h of incubation at 30 °C, the universal inhibitor nicotinamide was added in excess to completely stop the deacetylation reaction, followed by the addition of a protease-based developer to release 7-amino-4-methylcoumarin, resulting in characteristic fluorescence, which was measured after 1 h at 30 °C (excitation/emission = 360/460). A no-inhibitor control was implemented, serving as a reference for 100% enzyme activity. […] Three individual IC50 values per test compound were calculated from the corresponding three dilution series fluorescence data using sigmoidal curve fitting in Prism 8.0.2 (GraphPad Software, Boston, MA, USA), and these were averaged to determine the mean IC50 value along with the standard deviation. To assess the selectivity against Sirt1, Sirt3, and Sirt5, a 50 µM concentration of the test compound was tested in duplicate, and the inhibitory activity was expressed as the mean of the duplicates in percentage of enzyme activity, including standard deviation, relative to the no-inhibitor control (representative 100% enzyme activity).

[3] = tested on: T2, Sirt3; assay: Fluorescence-based Sirt3 subtype selectivity assay (Reaction Biology); format: biochemical; details: 50 µM inhibitor, duplicate, relative to no-inhibitor control
T2 construct: spans amino acids 101–399; GST (N); purchased Reaction Biology Corporation (Malvern, PA, USA), in-house enzyme of the contract laboratory; host or cells: E. coli
Experimental: as §3, §4

[4] = target: T3, Sirt2 (Homo sapiens, UniProt Q8IXJ6); assay: Fluorescence-based Sirt2 deacetylase inhibition assay (Reaction Biology); format: biochemical; details: for IC50: fluorescence-based assay
T3 construct: comprising amino acids 50–389 (C-terminal); His-tag (N); purchased Reaction Biology Corporation (Malvern, PA, USA), in-house enzyme of the contract laboratory; host or cells: E. coli
T3 sequence (Q8IXJ6 50-389): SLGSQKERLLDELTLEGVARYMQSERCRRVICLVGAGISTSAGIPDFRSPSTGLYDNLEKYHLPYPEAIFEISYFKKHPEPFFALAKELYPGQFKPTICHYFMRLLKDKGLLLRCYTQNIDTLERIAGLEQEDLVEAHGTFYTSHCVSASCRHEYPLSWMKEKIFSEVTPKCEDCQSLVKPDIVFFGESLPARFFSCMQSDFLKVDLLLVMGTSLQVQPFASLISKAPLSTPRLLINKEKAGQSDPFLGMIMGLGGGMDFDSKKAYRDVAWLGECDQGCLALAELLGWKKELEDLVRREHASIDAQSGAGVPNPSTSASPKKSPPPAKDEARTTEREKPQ
Experimental: as §3
Sirtuin assays. The biological activity of the test substances against the respective sirtuin enzymes was evaluated by means of a fluorescence-based assay performed by Reaction Biology Corporation (Malvern, PA, USA). The sirtuin enzymes used in the assays were all obtained from in-house sources at Reaction Biology Corporation (Malvern, PA, USA). […] Sirt2 is provided in a buffer containing 50 mM Tris/HCl (pH 7.5), 500 mM NaCl, 1 mM TCEP, and 10% glycerol (v/v). […] Sirt3 is supplied in 50 mM Tris/HCl (pH 7.5), 500 mM NaCl, and 10% glycerol (v/v). […] All proteins were provided in purified forms for use in the assays. […] After 2 h of incubation at 30 °C, the universal inhibitor nicotinamide was added in excess to completely stop the deacetylation reaction, followed by the addition of a protease-based developer to release 7-amino-4-methylcoumarin, resulting in characteristic fluorescence, which was measured after 1 h at 30 °C (excitation/emission = 360/460). A no-inhibitor control was implemented, serving as a reference for 100% enzyme activity. […] Three individual IC50 values per test compound were calculated from the corresponding three dilution series fluorescence data using sigmoidal curve fitting in Prism 8.0.2 (GraphPad Software, Boston, MA, USA), and these were averaged to determine the mean IC50 value along with the standard deviation. To assess the selectivity against Sirt1, Sirt3, and Sirt5, a 50 µM concentration of the test compound was tested in duplicate, and the inhibitory activity was expressed as the mean of the duplicates in percentage of enzyme activity, including standard deviation, relative to the no-inhibitor control (representative 100% enzyme activity).

[5] = tested on: T4, Sirt5; assay: Fluorescence-based Sirt5 subtype selectivity assay (Reaction Biology); format: biochemical; details: 50 µM inhibitor, duplicate, relative to no-inhibitor control
T4 construct: consisting of amino acids 37–310 (C-terminal); His-tag (N); purchased Reaction Biology Corporation (Malvern, PA, USA), in-house enzyme of the contract laboratory; host or cells: E. coli
Experimental: as §3, §4

[6] = tested on: HL-60 cells; assay: MTT-based cell viability assay; parameters: species or system human
Experimental: as §1, §2

[7] = tested on: HL-60 cell line; parameters: method as in PMID 35441145; details: cited from earlier work
[8] = rounded values, read-out: IC50 Sirt2
[9] = mean ± SD of three dilution series, read-out: IC50 [µM] ± SD Sirt2

Row | Residual Enzyme Activity [%] ± SD Sirt1 [2] [%] | Residual Enzyme Activity [%] ± SD Sirt3 [3] [%] | IC50 [4, 8] [µM] | IC50 [4, 9] [µM] | Residual Enzyme Activity [%] ± SD Sirt5 [5] [%] | selectivity towards related subtypes Sirt1, Sirt3 and Sirt5 ([4]; Sirt2 versus Sirt1, Sirt3, Sirt5) | outperforms lead compound SirReal2 by a factor ([4]; ratio of Sirt2 IC50 values) | stronger Sirt2 inhibition compared to lead compound Yang_24a (fold) ([4]; ratio of Sirt2 IC50 values) | times more potent than hybrid precursor FM358 ([4]; ratio of Sirt2 IC50 values) | SMILES | IC50 at 24 h [1] [nM] | changes in cell viability relative to DMSO control ([6]; HL-60 cells, MTT, up to 200 µM, three technical replicates) | acute toxicity to human cells ([6]; MTT assay) | toxicity in HL-60 cell line [7]
1 | 60.9 ± 0.7 | 64.2 ± 1.2 | 0.049 | 0.0485 ± 0.0056 | 48.2 ± 1.8 | – | – | – | – | Cc1cc(C)nc(SCC(=O)Nc2ncc(COc3ccc(NC(=O)c4cnn(C)c4)c(I)c3)s2)n1 [RW-95, N-(4-((2-(2-((4,6-Dimethylpyrimidin-2-yl)thio)acetamido)thiazol-5-yl)methoxy)-2-iodophenyl)-1-methyl-1H-pyrazole-4-carboxamide] | > 50000 | – | – | –
2 | 58.2 ± 0.2 | 62.3 ± 1.2 | 0.016 | 0.0155 ± 0.0007 | 53.0 ± 0.2 | more than 3000 fold | 15 | 5 | more than 4 | Cc1cc(C)nc(SCC(=O)Nc2ncc(COc3ccc(NC(=O)c4cnn(C)c4)c(Br)c3)s2)n1 [RW-93, N-(2-Bromo-4-((2-(2-((4,6-dimethylpyrimidin-2-yl)thio)acetamido)thiazol-5-yl)-methoxy)phenyl)-1-methyl-1H-pyrazole-4-carboxamide] | > 50000 | No signiﬁcant changes | ruled out | –
3 | 53.9 ± 0.2 | 56.1 ± 0.1 | – | 0.025 ± 0.0026 | 55.1 ± 2.0 | – | – | – | – | Cc1cc(C)nc(SCC(=O)Nc2ncc(COc3ccc(NC(=O)c4cnn(C)c4)c(Cl)c3)s2)n1 [RW-99, N-(2-Chloro-4-((2-(2-((4,6-dimethylpyrimidin-2-yl)thio)acetamido)thiazol-5-yl)methoxy)phenyl)-1-methyl-1H-pyrazole-4-carboxamide] | > 50000 | – | – | –

Continued, compound first:

Row | SMILES | Residual Enzyme Activity [%] ± SD Sirt1 [2] [%] | Residual Enzyme Activity [%] ± SD Sirt3 [3] [%] | IC50 [4, 8] [µM] | IC50 [4, 9] [µM] | Residual Enzyme Activity [%] ± SD Sirt5 [5] [%] | selectivity towards related subtypes Sirt1, Sirt3 and Sirt5 ([4]; Sirt2 versus Sirt1, Sirt3, Sirt5) | outperforms lead compound SirReal2 by a factor ([4]; ratio of Sirt2 IC50 values) | stronger Sirt2 inhibition compared to lead compound Yang_24a (fold) ([4]; ratio of Sirt2 IC50 values) | times more potent than hybrid precursor FM358 ([4]; ratio of Sirt2 IC50 values) | IC50 at 24 h [1] [nM] | changes in cell viability relative to DMSO control ([6]; HL-60 cells, MTT, up to 200 µM, three technical replicates) | acute toxicity to human cells ([6]; MTT assay) | toxicity in HL-60 cell line [7]
4 | Cc1cc(C)nc(SCC(=O)Nc2ncc(COc3ccc(NC(=O)c4cccs4)cc3)s2)n1 [FM352, N-(4-((2-(2-((4,6-Dimethylpyrimidin-2-yl)thio)acetamido)thiazol-5-yl)methoxy)phenyl)thiophene-2-carboxamide] | 101 ± 1 | 75.8 ± 5.3 | 0.094 | 0.0935 ± 0.0064 | 75.6 ± 1.1 | – | – | – | – | > 50000 | – | – | –
5 | Cc1cc(C)nc(SCC(=O)Nc2ncc(COc3cccc4ccccc34)s2)n1 [FM368, 2-((4,6-Dimethylpyrimidin-2-yl)thio)-N-(5-((naphthalen-1-yloxy)methyl)thiazol-2-yl)acetamide] | 88.5 ± 2.7 | 85.0 ± 0.5 | 6.5 | 6.51 ± 0.84 | 89.1 ± 1.4 | – | – | – | – | > 50000 | – | – | –
6 | Cc1cc(C)nc(SCC(=O)Nc2ncc(Cc3cccc4ccccc34)s2)n1 [SirReal2] | – | – | – | – | – | – | – | – | – | – | – | – | not toxic
7 | Cc1cc(C)nc(SCC(=O)Nc2ncc(COc3ccccc3)s2)n1 [FM345, 2-((4,6-Dimethylpyrimidin-2-yl)thio)-N-(5-(phenoxymethyl)thiazol-2-yl)acetamide] | 95.6 ± 2.3 | 78.8 ± 0.8 | 5.3 | 5.29 ± 0.73 | 94.6 ± 2.3 | – | – | – | – | > 50000 | – | – | –
8 | Cc1cc(C)nc(SCC(=O)Nc2ncc(COc3ccc(NC(=O)c4cnn(C)c4)cc3)s2)n1 [FM358, N-(4-((2-(2-((4,6-Dimethylpyrimidin-2-yl)thio)acetamido)thiazol-5-yl)methoxy)-phenyl)-1-methyl-1H-pyrazole-4-carboxamide] | 71.9 ± 0.6 | 62.5 ± 0.1 | 0.066 | 0.0656 ± 0.0044 | 79.8 ± 0.6 | – | – | 1.2 | – | > 50000 | – | – | –
